Reference: patent US20030194738A1, “Antisense oligonucleotide compositions and methods for the modulation of activating protein 1” (priority 1997, published 2003)
Strand notation (5' to 3'): a small letter for the sugar, then the base; units joined by * are phosphorothioate-linked, units joined directly phosphodiester-linked; [ ] holds rarer units or linkages, { } end groups; capitals alone tell only the bases. d = 2'-deoxy (DNA)

Columns and labels:
c-jun mRNA = c-jun mRNA expression in TPA-induced A549 cells, Northern blotting; assay type: cell-based, human; conditions: for c-jun mRNA % CONTROL: 400 nM oligonucleotide with LIPOFECTIN, control is TPA induction, at 1 hour, in A549 cells; for inhibition of c-jun mRNA expression: 400 nM oligonucleotide, TPA-induced A549 cells
Experimental: In order to evaluate the activity of potential c-fos and c-jun modulating oligonucleotides, A549 cells were grown in T-75 flasks until 80-90% confluent. (Cell line A549 is available from, inter alia, the American Type Culture Collection, Rockville, Md., as ATCC No. CCL-185.) At this time, the cells were washed twice with 10 mL of media (DMEM), followed by the addition of 5 mL of DMEM containing 20 μg/mL of LIPOFECTIN™ (i.e., DOTMA/DOPE (N-[1-(2,3-dioleyloxy)propyl]-N,N,N-[…] chloride/dioleoylphosphatidyl ethanolamine)). […] After 4 hours at 37° C., the medium was replaced with DMEM containing 10% serum. At this point, 1 μM 12-O-tetradecanoylphorbol 13-acetate (TPA) was added to induce expression of c-fos and c-jun. Cells were extracted in guanidinium one hour later, and the c-fos and c-jun mRNA expression was determined by Northern blotting. Probes for human c-jun and c-fos were PCR products prepared using primers based on the published sequences thereof (respectively, Hattori et al., Proc. Natl. Acad. Sci. U.S.A., 1988, 85:9148, and Van Straaten et al., Proc. Natl. Acad. Sci. U.S.A., 1983, 80:3183).

c-fos mRNA = c-fos mRNA expression in TPA-induced A549 cells, Northern blotting; assay type: cell-based, human; conditions: for c-fos mRNA % CONTROL: 400 nM oligonucleotide with LIPOFECTIN, control is TPA induction, at 1 hour, in A549 cells; for c-fos (expression, modified oligonucleotides): Table 10, TPA - no oligo = 100, basal = 3; for inhibition of c-fos mRNA expression: 400 nM oligonucleotide, TPA-induced A549 cells
Experimental: In order to evaluate the activity of potential c-fos and c-jun modulating oligonucleotides, A549 cells were grown in T-75 flasks until 80-90% confluent. (Cell line A549 is available from, inter alia, the American Type Culture Collection, Rockville, Md., as ATCC No. CCL-185.) At this time, the cells were washed twice with 10 mL of media (DMEM), followed by the addition of 5 mL of DMEM containing 20 μg/mL of LIPOFECTIN™ (i.e., DOTMA/DOPE (N-[1-(2,3-dioleyloxy)propyl]-N,N,N-[…] chloride/dioleoylphosphatidyl ethanolamine)). The oligonucleotides were added from a 10 μM stock solution to a final concentration of 400 nM, and the two solutions were mixed by swirling the flasks. After 4 hours at 37° C., the medium was replaced with DMEM containing 10% serum. At this point, 1 μM 12-O-tetradecanoylphorbol 13-acetate (TPA) was added to induce expression of c-fos and c-jun. Cells were extracted in guanidinium one hour later, and the c-fos and c-jun mRNA expression was determined by Northern blotting. Probes for human c-jun and c-fos were PCR products prepared using primers based on the published sequences thereof (respectively, Hattori et al., Proc. Natl. Acad. Sci. U.S.A., 1988, 85:9148, and Van Straaten et al., Proc. Natl. Acad. Sci. U.S.A., 1983, 80:3183).
Finally, it can also be seen from Table 5 that neither active oligonucleotide has any detectable effect on mRNA levels of the other active oligonucleotide's target.
Once oligonucleotides that modulate c-Fos or c-Jun are identified, derivative or modified oligonucleotides having the same sequence thereas are prepared. In order to evaluate the effect of chemical modifications to oligonucleotides to c-fos and c-jun, the modified oligonucleotides described in Tables 8 and 9 were prepared. The effect of the c-fos-targeted oligonucleotides on c-fos RNA levels were evaluated as described in Examples 2-3. […] Other modified oligonucleotides of the invention are evaluated in like fashion. In order to evaluate the effect of PNA antisense analogs, the PNA analogs of the invention are introduced into appropriate cell lines by microinjection according to the method of Hanvey et al. (Science, 1992, 258:1481). Intracellular delivery of PNA analogs is confirmed by the use of a fluorescently tagged PNA antisense analog conjugate such as, e.g., ISIS 14240.

Substance | c-fos mRNA % CONTROL (c-fos mRNA) | other results
GCT-GCG-CCG-CCG-ACG-TGA-CG (dG*dC*dT*dG*dC*dG*dC*dC*dG*dC*dC*dG*dA*dC*dG*dT*dG*dA*dC*dG; antisense) [ISIS 10578] |  | c-jun mRNA % CONTROL (c-jun mRNA): 37 % CONTROL
CGC-GCC-CGG-CCT-GAA-AAT-TT (CGCGCCCGGCCTGAAAATTT; antisense; DNA, all phosphorothioate, methylation of C not given here) [ISIS 10642] | 87 % CONTROL | 
GCC-ACA-CTC-AGT-GCA-ACT-CT (dG*dC*dC*dA*dC*dA*dC*dT*dC*dA*dG*dT*dG*dC*dA*dA*dC*dT*dC*dT; antisense) [ISIS 10570] |  | c-jun mRNA % CONTROL (c-jun mRNA): 62 % CONTROL
GTG-TCT-CGC-CGG-GCA-TCT-CG (dG*dT*dG*dT*dC*dT*dC*dG*dC*dC*dG*dG*dG*dC*dA*dT*dC*dT*dC*dG; antisense) [ISIS 10580] |  | c-jun mRNA % CONTROL (c-jun mRNA): 19 % CONTROL; inhibition of c-jun mRNA expression (c-jun mRNA): 81%
CCT-GCC-TCG-GCC-TCC-CAA-AG (CCTGCCTCGGCCTCCCAAAG; antisense; DNA, all phosphorothioate, methylation of C not given here) [ISIS 10643] | 39 % CONTROL | 
CAT-CGT-GGC-GGT-TAG-GCA-AA (CATCGTGGCGGTTAGGCAAA; antisense; all phosphorothioate, sugars by position and methylation of C not given here) [ISIS 10630] | 91 % CONTROL | 
CGC-ACC-TCC-ACT-CCC-GCC-TC (dC*dG*dC*dA*dC*dC*dT*dC*dC*dA*dC*dT*dC*dC*dC*dG*dC*dC*dT*dC; antisense) [ISIS 10571] |  | c-jun mRNA % CONTROL (c-jun mRNA): 100 % CONTROL
A^SA^SG^ST^SC^SC^ST^ST^SG^SA^SG^SG^SC^SC^SChu SA^SC^SA^SG^SC (AAGTCCTTGAGGCCCACAGC; all phosphorothioate, sugars by position and methylation of C not given here; further chemistry not fully specified) [ISIS 11200] |  | effect on c-fos mRNA levels during TPA induction (in words) (c-fos mRNA; A549 cells): some enhancement of c-fos modulation; c-fos (expression, modified oligonucleotides) (c-fos mRNA; A549 cells): 5
TCC-CGT-CCC-CAG-AAG-CAG-TA (TCCCGTCCCCAGAAGCAGTA; antisense; DNA, all phosphorothioate, methylation of C not given here) [ISIS 10641] | 68 % CONTROL | 
CCT-CAC-AGG-GCC-AGC-AGC-GT (CCTCACAGGGCCAGCAGCGT; antisense; all phosphorothioate, sugars by position and methylation of C not given here) [ISIS 10637] | 35 % CONTROL | 
ACC-AGC-CCG-GGA-GCC-ACA-GG (dA*dC*dC*dA*dG*dC*dC*dC*dG*dG*dG*dA*dG*dC*dC*dA*dC*dA*dG*dG; antisense) [ISIS 10572] |  | c-jun mRNA % CONTROL (c-jun mRNA): 39 % CONTROL
CCC-TCC-CAG-GCT-CAA-GTC-AT (CCCTCCCAGGCTCAAGTCAT; antisense; DNA, all phosphorothioate, methylation of C not given here) [ISIS 10646] | 100 % CONTROL | 
CCC-CTC-CAG-CAG-CTA-CCC-TT (CCCCTCCAGCAGCTACCCTT; antisense; all phosphorothioate, sugars by position and methylation of C not given here) [ISIS 10640] | 87 % CONTROL | 
TGC-CCC-TCA-GCC-CCC-GAC-GG (dT*dG*dC*dC*dC*dC*dT*dC*dA*dG*dC*dC*dC*dC*dC*dG*dA*dC*dG*dG; antisense) [ISIS 10583] |  | c-jun mRNA % CONTROL (c-jun mRNA): 20 % CONTROL; inhibition of c-jun mRNA expression (c-jun mRNA): 80%
ACC-GTG-GGA-ATG-AAG-TTG-GC (ACCGTGGGAATGAAGTTGGC; antisense; all phosphorothioate, sugars by position and methylation of C not given here) [ISIS 10632] | 63 % CONTROL | 
TGG-CAC-GGA-GCG-GGC-TGT-CT (TGGCACGGAGCGGGCTGTCT; antisense; all phosphorothioate, sugars by position and methylation of C not given here) [ISIS 10635] | 12 % CONTROL | inhibition of c-fos mRNA expression (c-fos mRNA): 88%
AGC-TCC-CTC-CTC-CGG-TTG-CG (AGCTCCCTCCTCCGGTTGCG; antisense; all phosphorothioate, sugars by position and methylation of C not given here) [ISIS 10633] | 24 % CONTROL | inhibition of c-fos mRNA expression (c-fos mRNA): 76%
GGT-GCC-GGC-TGC-CTC-CCC-TT (GGTGCCGGCTGCCTCCCCTT; antisense; all phosphorothioate, sugars by position and methylation of C not given here) [ISIS 10638] | 22 % CONTROL | inhibition of c-fos mRNA expression (c-fos mRNA): 78%
TTG-CAG-GCA-GGT-CGG-TGA-GC (TTGCAGGCAGGTCGGTGAGC; antisense; all phosphorothioate, sugars by position and methylation of C not given here) [ISIS 10634] | 42 % CONTROL | 
GAG-AAC-ATC-ATC-GTG-GCG-GT (GAGAACATCATCGTGGCGGT; antisense; all phosphorothioate, sugars by position and methylation of C not given here) [ISIS 10631] | 118 % CONTROL | 
CCC-CCA-CTT-CCG-CCC-ACT-AT (CCCCCACTTCCGCCCACTAT; antisense; DNA, all phosphorothioate, methylation of C not given here) [ISIS 10644] | 104 % CONTROL | 
TGC-TGC-TGC-CCT-TGC-GGT-GG (TGCTGCTGCCCTTGCGGTGG; antisense; all phosphorothioate, sugars by position and methylation of C not given here) [ISIS 10636] | 42 % CONTROL | 
CGC-CCC-GCC-GCC-GCT-GCT-CA (dC*dG*dC*dC*dC*dC*dG*dC*dC*dG*dC*dC*dG*dC*dT*dG*dC*dT*dC*dA; antisense) [ISIS 10579] |  | c-jun mRNA % CONTROL (c-jun mRNA): 41 % CONTROL
TGC-TCG-CTG-CAC-ATG-CGG-TT (TGCTCGCTGCACATGCGGTT; antisense; all phosphorothioate, sugars by position and methylation of C not given here) [ISIS 10628] | 79 % CONTROL | 
A^SA^SG^ST^SC^SC^ST^ST^SG^SA^SG^SG^SC^SC^SC^SA^SC^SA^SG^SC (antisense AAGTCCTTGAGGCCCACAGC; all phosphorothioate, sugars by position and methylation of C not given here) [ISIS 11538] |  | c-fos (expression, modified oligonucleotides) (c-fos mRNA; A549 cells): 15
TGG-TGC-CTG-CGT-GAT-ACT-CG (TGGTGCCTGCGTGATACTCG; antisense; DNA, all phosphorothioate, methylation of C not given here) [ISIS 10645] | 56 % CONTROL | 
CCC-CCG-ACC-GTC-TCT-CTT-CA (dC*dC*dC*dC*dC*dG*dA*dC*dC*dG*dT*dC*dT*dC*dT*dC*dT*dT*dC*dA; antisense) [ISIS 10581] |  | c-jun mRNA % CONTROL (c-jun mRNA): 24 % CONTROL; inhibition of c-jun mRNA expression (c-jun mRNA): 76%
CGG-TCA-CTG-CTC-GTT-CGC-TG (CGGTCACTGCTCGTTCGCTG; antisense; all phosphorothioate, sugars by position and methylation of C not given here) [ISIS 10629] | 72 % CONTROL | 
